Measurements reported in BigSolDB 2.1.

C[C@@H]1CC[C@@]2(OC1)O[C@H]1C[C@H]3[C@@H]4CC=C5C[C@@H](O)CC[C@]5(C)[C@H]4CC[C@]3(C)[C@H]1[C@@H]2C
solubility (mole fraction)
Settings	293.2 K	298.2 K	303.2 K	308.2 K	313.2 K	318.2 K	323.2 K	328.2 K
in 2-aminoethanol	0.00142	0.00218	0.0042	0.00625	0.00807	0.00914	0.011	0.0132
in DMF	0.00113	0.00159	0.00232	0.00369	0.00461	0.00587	0.00794	0.0116
in NMP	0.0118	0.0128	0.0138	0.0148	0.0163	0.0178	0.0196	0.0219
in acetonitrile	0.00359	0.00529	0.00675	0.00894	0.0125	0.0151	0.0188	0.0221
in morpholine-4-carbaldehyde	0.00663	0.00809	0.00976	0.012	0.0147	0.0162	0.0181	0.0198
in n-dodecane	0.000266	0.000351	0.000439	0.000542	0.000631	0.000743	0.000898	0.00105
in n-hexadecane	0.000256	0.000373	0.000465	0.000626	0.000949	0.00131	0.00171	0.00244
in n-nonanol	0.0067	0.00825	0.00965	0.011	0.0123	0.0132	0.0145	0.0155
in n-octane	8.1e-05	0.00013	0.00016	0.00021	0.000302	0.000466	0.00068	0.000915
in n-octanol	0.00348	0.00423	0.00516	0.0066	0.00842	0.00947	0.0104	0.0116
in sec-butanol	0.000128	0.000229	0.000436	0.000784	0.00119	0.0017	0.00253	0.00366

C[C@]12CC[C@@H]3c4ccc(O)cc4CC[C@H]3[C@@H]1C[C@@H](O)[C@@H]2O
solubility (mole fraction)
Settings	293.2 K	298.2 K	303.2 K	308.2 K	313.2 K	318.2 K	323.2 K	328.2 K
in 2-aminoethanol	0.0111	0.0127	0.0148	0.018	0.0214	0.0254	0.0314	0.0363
in DMF	0.00112	0.00158	0.00258	0.00426	0.00581	0.00958	0.013	0.018
in NMP	0.000415	0.000677	0.00105	0.00174	0.00275	0.00364	0.00491	0.00718
in morpholine-4-carbaldehyde	6.2e-05	0.00023	0.000652	0.00147	0.00343	0.00495	0.00726	0.0107
in n-dodecane	0.00072	0.000779	0.00092	0.000956	0.00128	0.00179	0.00243	0.00285
in n-hexadecane	0.00114	0.00147	0.00175	0.00219	0.00251	0.00299	0.00335	0.00382
in n-nonanol	0.0074	0.00863	0.0104	0.0116	0.0131	0.0147	0.0168	0.0199
in n-octane	0.000621	0.000735	0.000873	0.00103	0.00123	0.00138	0.00152	0.00186
in n-octanol	0.00593	0.00678	0.00747	0.00868	0.0104	0.0121	0.0147	0.0171
in n-pentanol	0.00243	0.00285	0.00367	0.00468	0.00594	0.00809	0.00967	0.0121
in sec-butanol	0.00189	0.0025	0.0032	0.00403	0.00453	0.00533	0.00668	0.00812
in water	0.000115	0.000135	0.000168	0.000191	0.000306	0.000422	0.000577	0.000803
